Measured values from patent publication US12466781B2, “Thyromimetics” (Autobahn Therapeutics, Inc., priority 2019, dated 2025).

Key:
[1] = Tissue distribution studies (tissue concentrations by LC-MS/MS); assay type: in vivo, male C57Bl/6 mice; settings: for AUC(4-hr) Heart / AUC(4-hr) Liver: mice, targeted dose 0.100 mg/kg; for brain levels of parent acid Compound 15: PO dosing (0.1 mg/kg) of the amide prodrug, compared to dosing Compound 15 itself, FIG. 1
Description: For tissue concentration studies in male C57Bl/6 mice, test compounds are formulated as NMP/solutol/PBS solution, at a concentration of 0.05 mg/mL and dosed at 2 mL/kg with the targeted dose of 0.100 mg/kg via SC injection or oral dosing. […] The pharmacokinetic parameters are determined by non-compartmental methods using WinNonlin. Area under the drug curves (AUC) values are determined by trapezoidal approximation; tissue-to-tissue ratios are determined by comparing AUC values.

TRβ = target: T1, TRβ (Homo sapiens, UniProt P10828); assay: Thyroid-hormone reporter-gene assay (TRβ-Gal4 hybrid, luciferase, HEK293); assay type: cell-based; settings: Table 2; for T3-SI (selectivity index): calculated as EC50 (TRα)/EC50 (TRβ); for EC50: reporter cells, 24 hr incubation, read-out: TRβ (EC50)
T1 construct: expressed in transfected cells; host or cells: HEK293
T1 sequence (P10828 217-461 limits assumed): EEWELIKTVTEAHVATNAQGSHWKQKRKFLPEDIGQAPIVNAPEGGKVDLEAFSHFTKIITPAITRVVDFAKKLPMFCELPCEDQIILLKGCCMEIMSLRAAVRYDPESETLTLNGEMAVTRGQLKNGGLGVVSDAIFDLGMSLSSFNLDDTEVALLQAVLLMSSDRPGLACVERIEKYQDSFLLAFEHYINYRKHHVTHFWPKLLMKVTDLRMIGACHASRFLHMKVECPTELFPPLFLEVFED
Description: (§1) Compounds were tested for thyroid-hormone receptor activity using TR reporter-gene assays. Reporter cells used in the assays express a TR-receptor hybrid (either TRα or TRβ) in which the native N-terminal DNA binding domain (DBD) has been replaced with that of the yeast Gal4 DBD. The reporter gene, firefly luciferase, is functionally linked to the Gal4 upstream activation sequence (UAS). Both cell lines were derived from human embryonic kidney (HEK293).
(§2) Step 1: A suspension of reporter cells was prepared in cell recovery medium containing 10% charcoal-stripped FBS, and dispensed into assay plates. The plates were pre-incubated for 6 hours in a cell culture incubator (37° C./5% CO2/85% humidity).
(§3) These intermediate stocks were subsequently diluted directly into compound screening medium containing 10% charcoal-stripped FBS to generate “2×-concentration” treatment media (containing 0.2, 0.4 or 0.8% DMSO).
(§4) Step 3: At the end of the pre-incubation period, culture media were discarded from the assay plates, and all wells received 100 μl of compound screening medium. 100 μl of each of the previously prepared “2×-concentration” treatment media were dispensed into duplicate assay wells, thereby achieving the desired final treatment concentrations. The final concentration of DMSO in all assay wells was 0.1, 0.2 or 0.4%. Assay plates were incubated for 24 hr in a cell culture incubator (37° C./5% CO2/85% humidity).
(§5) Step 4: At the 24 h assay endpoint, treatment media were discarded and 100 μl/well of luciferase detection reagent was added. Relative luminometer units (RLUs) were quantified from each assay well.

TRα = target: T2, TRα (Homo sapiens, UniProt P10827); assay: Thyroid-hormone reporter-gene assay (TRα-Gal4 hybrid, luciferase, HEK293); assay type: cell-based; settings: reporter cells, 24 hr incubation; Table 2; read-out: TRα (EC50)
T2 construct: expressed in transfected cells; host or cells: HEK293
T2 sequence (P10827 163-410 isoform P10827-2 limits assumed): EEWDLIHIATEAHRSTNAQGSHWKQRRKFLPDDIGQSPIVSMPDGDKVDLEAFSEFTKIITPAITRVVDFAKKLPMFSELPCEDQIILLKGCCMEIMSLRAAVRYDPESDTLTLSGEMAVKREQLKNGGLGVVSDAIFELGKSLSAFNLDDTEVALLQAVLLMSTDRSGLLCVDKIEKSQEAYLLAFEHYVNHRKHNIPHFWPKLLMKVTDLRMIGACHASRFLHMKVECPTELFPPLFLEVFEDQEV
Description: as §1, §2, §3, §4, §5

SMILES	AUC(4-hr) Heart [1]	AUC(4-hr) Liver [1]	T3-SI (selectivity index) (TRβ)	EC50 (TRβ) [nM]	EC50 (TRα) [nM]	brain levels of parent acid Compound 15 [1]
CNC(=O)COc1cc(Cl)c(Cc2ccc(O)c(C(C)C)c2F)c(Cl)c1 [Compound 16, 2-(3,5-dichloro-4-(2-fluoro-4-hydroxy-3-isopropylbenzyl)phenoxy)-N-methylacetamide]	–	–	–	–	–	dramatic increase in brain concentration of the parent acid
CC(C)c1c(O)ccc(Cc2c(Cl)cc(OCC(=O)N(C)C)cc2Cl)c1F [Compound 17, 2-(3,5-dichloro-4-(2-fluoro-4-hydroxy-3-isopropylbenzyl)phenoxy)-N,N-dimethylacetamide]	–	–	–	–	–	increase in the brain concentration of the parent acid
CCOC(=O)COc1cc(Cl)c(Cc2ccc(O)c(C(C)C)c2)c(Cl)c1OC [Compound 165, ethyl 2-(3,5-dichloro-4-(4-hydroxy-3-isopropylbenzyl)-2-methoxyphenoxy)acetate]	–	–	++ (3×<T3-SI≤30×)	100 to 1000	100 to 1000	–

More lines, main results first:

AUC(4-hr) Heart [1]	AUC(4-hr) Liver [1]	T3-SI (selectivity index) (TRβ)	EC50 (TRβ) [nM]	EC50 (TRα) [nM]	SMILES	brain levels of parent acid Compound 15 [1]
25.8 ng-hr/g of tissue	580 ng-hr/g of tissue	–	–	–	CC(C)c1c(O)ccc(Cc2c(Cl)cc(OCC(=O)O)cc2Cl)c1F [Compound 15, 2-(3,5-dichloro-4-(2-fluoro-4-hydroxy-3-isopropylbenzyl)phenoxy)acetic acid]	–
24.4 ng-hr/g of tissue	550 ng-hr/g of tissue	–	–	–	CC(C)c1cc(Cc2c(Cl)cc(OCC(=O)O)c(F)c2Cl)ccc1O [Compound 62, 2-(3,5-dichloro-2-fluoro-4-(4-hydroxy-3-isopropylbenzyl)phenoxy)acetic acid]	–
–	–	++ (3×<T3-SI≤30×)	10 to 100	100 to 1000	CCC(c1ccc(F)cc1)c1c(O)ccc(Cc2c(Cl)cc(OCC(=O)O)cc2Cl)c1F (stereo not drawn) [Compound 32, 2-(3,5-dichloro-4-(2-fluoro-3-(1-(4-fluorophenyl)propyl)-4-hydroxybenzyl)phenoxy)acetic acid]	–
–	–	++ (3×<T3-SI≤30×)	< 10	10 to 100	O=C(O)COc1cc(Cl)c(Cc2ccc(O)c(-c3cc(C(F)(F)F)ccc3F)c2F)c(Cl)c1 [Compound 25, 2-(3,5-dichloro-4-((2,2′-difluoro-6-hydroxy-5′-(trifluoromethyl)-[1,1′-biphenyl]-3-yl)methyl)phenoxy)acetic acid]	–
